# Measurements from patent US5214040A, “Nonsaditive antihistaminics derived from benzimidazoles” (Laboratorios del Dr. Esteve, S.A., priority 1991, dated 1993).
# Legend:
# [1] = system: rats; experiment: Sedative effect: Irwin test (behaviour of rats); assay type: in vivo; settings: i.p.; for Atax. (ataxia) / pas. (passivity, sedation, prostration): score 0 to 3, 1, 2 and 3 hours after treatment
# Description: Pas.: Passivity, sedation, prostration. Quantitative evaluation between 0 and 3. They are performed 1, 2 and 3 hours after the treatment.
# Atax.: Ataxia, the modifications of coordination in movement are evaluated. The are evaluated between 0 and 3. They are performed 1, 2 and 3 hours after the treatment.
# [2] = system: 48/80-induced death in rats; experiment: Protection against mortality caused by compound 48/80 in rats (antihistaminic activity in vivo); settings: Rattus norvegicus, ip, 60 min before 48/80 (0.5 mg/kg, i.v.), survival 4 hours after, read-out: ED-50 (protection from 48/80-induced death)
# Description: The antihistaminic activity was studied by determining the protection against the mortality caused by the product 48/80 in rats. This trial was performed according to the technique described by C.
# The activity of the products is studied at several doses in order to determine the dose which is capable of protecting 50% of the animals (ED-50).
# Finally, the antihistaminic activity of the product of Example 1 is indicated.
# [3] = Sedative effect: potentiation of pentobarbital-induced duration of sleep; settings: for potentiation of pentobarbital-induced duration of sleep (in words): orally; for Potentiation of duration of sleep: p.o., vs control group with pentobarbital 35 mg/kg, s.c.
# Description: The studied products were administered orally. […] The duration of sleep was compared with a control group of animals treated only with sodium pentobarbital.
SMILES,Atax. (ataxia) ([1]; dose 40 mg/kg),"pas. (passivity, sedation, prostration) ([1]; dose 40 mg/kg)",ED50 [2] [mg/kg],potentiation of pentobarbital-induced duration of sleep (in words) ([3]; at a dose of 20 mg/kg),"sedative effect (in words) ([1]; Irwin test, rats)",Atax. (ataxia) ([1]; dose 80 mg/kg),"pas. (passivity, sedation, prostration) ([1]; dose 80 mg/kg)",Potentiation of duration of sleep ([3]; dose 80 mg/kg) [%],Potentiation of duration of sleep ([3]; dose 160 mg/kg) [%],"potentiation of pentobarbital-induced duration of sleep (in words) ([3]; even at 160 mg/kg, the maximum dose tested)"
"CN(C)CCOC(c1ccccc1)c1ccccc1 [Difenhidramine, reference compound]",0.9,0,5.4,significantly potentiates,,,,,,
"CCOCCn1c(CN2CCCN(CCCCn3cccn3)CC2)nc2ccccc21 [Example 1, 1-(2-ethoxyethyl)-2-{4-[4-(pyrazol-1-yl)butyl]homopiperazin-1-ylmethyl}benzimidazole]",,,0.04,,very weak sedative effect,0.2,0,8,1,does not potentiate
